Data set [1] has as its target T1, membrane-associated human IR-A (Homo sapiens, UniProt P06213).
T1 construct: expressed in transfected cells; host or cells: BHK cells, pZem219B vector, plasma membrane preparation
Kind of data set: Insulin receptor affinity on membrane associated receptors (SPA), IR-A. It is filed as binding. The note with it: relative to human insulin. As for the experimental part: (§1) Membrane-associated human IR and IGF-1R are purified from BHK cells stably transfected with the pZem219B vector containing either the human IR-A, IR-B or IGF-IR insert. BHK cells are harvested and homogenized in ice-cold buffer (25 mM HEPES pH 7.4, 25 mM CaCl2 and 1 mM MgCl2, 250 mg/L bacitracin, 0.1 mM Pefablock). The homogenates are layered on a 41% (w/v) sucrose cushion and centrifuged for 75 minutes at 95000 g at 4° C. The plasma membranes are collected, diluted 1:5 with buffer (as above) and centrifuged again for 45 minutes at 40000 g at 4° C. The pellets are resuspended in a minimal volume of buffer and drawn through a needle (size 23) three times before storage at −80° C. until usage. The relative binding affinity for either of the membrane-associated human IR-A, IR-B or IGF-1R is determined by competition binding in a SPA setup. IR assays are performed in duplicate in 96-well OptiPlates (Perkin-Elmer Life Sciences). Membrane protein is incubated with gentle agitation for 150 minutes at 25° C. with 50 pM [^125IA14Y]-human insulin in a total volume of […] assay buffer (50 mM HEPES, 150 mM NaCl, 5 mM MgSO4, 0.01% Triton X-100, 0.1% (w/v) HSA (Sigma A1887), Complete EDTA-free protease inhibitors), 50 μg of wheat germ agglutinate (WGA)-coated PVT microspheres (GE Healthcare) and increasing concentrations of ligand. Assays are terminated by centrifugation of the plate at 2000 rpm for 2 minutes and bound radioactivity quantified by counting on a TopCount NXT (Perkin-Elmer Life Sciences).
(§2) IGF-1R assays are conducted essentially as for the IR binding assays except that membrane-associated IGF-1R and 50 pM [^125I-Tyr31]-human IGF-1 were employed.

Data set [2] deals with T2, membrane-associated human IR-B (Homo sapiens, UniProt P06213).
T2 construct: expressed in transfected cells; host or cells: BHK cells, pZem219B vector, plasma membrane preparation
T2 sequence (P06213 28-758 limits assumed): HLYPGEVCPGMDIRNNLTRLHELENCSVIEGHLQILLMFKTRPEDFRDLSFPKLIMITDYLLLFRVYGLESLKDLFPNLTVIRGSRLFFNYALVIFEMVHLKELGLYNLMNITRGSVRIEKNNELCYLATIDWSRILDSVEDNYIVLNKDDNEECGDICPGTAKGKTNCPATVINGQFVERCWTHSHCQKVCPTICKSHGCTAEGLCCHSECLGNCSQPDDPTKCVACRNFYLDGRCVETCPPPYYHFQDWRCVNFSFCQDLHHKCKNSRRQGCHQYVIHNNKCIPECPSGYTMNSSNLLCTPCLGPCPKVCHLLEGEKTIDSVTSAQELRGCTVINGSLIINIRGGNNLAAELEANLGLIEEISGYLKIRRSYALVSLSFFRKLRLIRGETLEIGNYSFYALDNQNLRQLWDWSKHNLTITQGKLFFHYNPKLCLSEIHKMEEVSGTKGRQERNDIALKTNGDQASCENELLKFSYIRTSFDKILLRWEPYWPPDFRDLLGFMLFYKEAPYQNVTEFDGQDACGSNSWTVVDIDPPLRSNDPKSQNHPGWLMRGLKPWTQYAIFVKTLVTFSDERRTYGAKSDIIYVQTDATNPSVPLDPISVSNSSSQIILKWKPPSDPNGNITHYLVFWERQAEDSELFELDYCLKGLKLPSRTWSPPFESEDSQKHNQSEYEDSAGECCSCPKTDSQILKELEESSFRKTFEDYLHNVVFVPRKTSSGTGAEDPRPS
T2 sequence (P06213 763-1382 partner limits assumed): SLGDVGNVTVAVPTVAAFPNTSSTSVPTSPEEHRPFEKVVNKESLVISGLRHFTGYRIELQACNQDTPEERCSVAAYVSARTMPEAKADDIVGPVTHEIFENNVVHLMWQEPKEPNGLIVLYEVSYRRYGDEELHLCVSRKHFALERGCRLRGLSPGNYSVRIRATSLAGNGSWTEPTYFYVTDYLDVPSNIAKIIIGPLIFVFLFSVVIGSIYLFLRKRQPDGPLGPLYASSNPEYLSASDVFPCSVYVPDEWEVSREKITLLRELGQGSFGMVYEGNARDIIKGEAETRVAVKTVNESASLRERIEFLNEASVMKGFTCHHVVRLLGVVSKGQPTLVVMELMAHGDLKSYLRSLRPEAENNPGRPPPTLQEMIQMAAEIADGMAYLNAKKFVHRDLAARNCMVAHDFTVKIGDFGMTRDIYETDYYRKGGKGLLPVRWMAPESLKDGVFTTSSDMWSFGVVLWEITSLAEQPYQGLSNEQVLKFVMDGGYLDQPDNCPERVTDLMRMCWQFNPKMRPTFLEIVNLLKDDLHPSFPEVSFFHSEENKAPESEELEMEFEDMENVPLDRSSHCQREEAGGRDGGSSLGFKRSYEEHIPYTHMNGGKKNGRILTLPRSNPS
Kind of data set: Insulin receptor affinity on membrane associated receptors (SPA), IR-B. To be noted: relative to human insulin. It is filed as binding. As for the experimental part:
as §1, §2

Data set [3] deals with T3, membrane-associated human IGF-1R (Homo sapiens, UniProt P08069).
T3 construct: expressed in transfected cells; host or cells: BHK cells, pZem219B vector, plasma membrane preparation
T3 sequence (P08069 31-736 limits assumed): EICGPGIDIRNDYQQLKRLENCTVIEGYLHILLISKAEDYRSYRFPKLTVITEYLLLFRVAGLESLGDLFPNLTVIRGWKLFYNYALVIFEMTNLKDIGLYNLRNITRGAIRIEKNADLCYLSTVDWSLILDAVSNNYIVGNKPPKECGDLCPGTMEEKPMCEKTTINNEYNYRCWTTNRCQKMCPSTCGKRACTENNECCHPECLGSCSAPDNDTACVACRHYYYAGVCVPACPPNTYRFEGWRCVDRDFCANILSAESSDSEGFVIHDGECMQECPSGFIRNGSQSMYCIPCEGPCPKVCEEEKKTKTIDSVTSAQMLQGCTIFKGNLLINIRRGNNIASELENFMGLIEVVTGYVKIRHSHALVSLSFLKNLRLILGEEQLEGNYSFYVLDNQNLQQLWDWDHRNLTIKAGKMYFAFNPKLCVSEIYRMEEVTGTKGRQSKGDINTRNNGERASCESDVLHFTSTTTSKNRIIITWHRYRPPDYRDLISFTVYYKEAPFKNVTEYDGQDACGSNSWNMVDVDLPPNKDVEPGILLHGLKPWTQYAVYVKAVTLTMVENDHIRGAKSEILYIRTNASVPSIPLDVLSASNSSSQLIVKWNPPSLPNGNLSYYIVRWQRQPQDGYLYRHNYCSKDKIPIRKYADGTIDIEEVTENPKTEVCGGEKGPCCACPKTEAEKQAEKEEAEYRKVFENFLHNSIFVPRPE
T3 sequence (P08069 741-1367 partner limits assumed): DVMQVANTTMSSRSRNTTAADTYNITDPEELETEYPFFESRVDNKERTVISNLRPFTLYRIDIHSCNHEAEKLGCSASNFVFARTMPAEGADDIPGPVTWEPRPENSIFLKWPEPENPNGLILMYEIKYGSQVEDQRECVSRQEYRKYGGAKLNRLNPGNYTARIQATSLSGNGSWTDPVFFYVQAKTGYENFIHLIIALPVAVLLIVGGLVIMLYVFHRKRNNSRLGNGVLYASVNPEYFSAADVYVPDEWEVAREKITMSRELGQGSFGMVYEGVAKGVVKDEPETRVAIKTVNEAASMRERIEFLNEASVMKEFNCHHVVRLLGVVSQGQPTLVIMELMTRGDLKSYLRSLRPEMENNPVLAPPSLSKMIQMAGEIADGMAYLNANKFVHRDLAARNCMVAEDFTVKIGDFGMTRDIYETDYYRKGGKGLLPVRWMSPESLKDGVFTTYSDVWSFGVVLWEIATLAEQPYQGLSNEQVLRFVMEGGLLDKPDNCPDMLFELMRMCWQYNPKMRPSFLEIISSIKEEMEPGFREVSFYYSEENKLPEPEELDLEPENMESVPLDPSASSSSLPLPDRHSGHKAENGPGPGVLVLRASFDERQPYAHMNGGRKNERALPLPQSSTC
Kind of data set: IGF-1 receptor affinity on membrane associated receptors (SPA). To be noted: membrane-associated IGF-1R, relative to human insulin. It is filed as binding. The procedure:
as §1, §2

Another data set concerns primary rat adipocytes. Kind of data set: Lipogenesis in rat adipocytes. It is filed as cell-based. The note with it: relative to human insulin. The procedure: As a measure of in vitro potency of the insulin conjugatess of the invention, lipogenesis can be used. Primary rat adipocytes are isolated from the epididymale fat pads and incubated with 3H-glucose in buffer containing e.g. 0.1% fat free HSA and either standard (human insulin, HI) or insulin conjugates of the invention. The labelled glucose is converted into extractable lipids in a dose dependent way, resulting in full dose response curves. The result is expressed as relative potency (%) with 95% confidence limits of insulin of the invention compared to standard (HI).

The nature of data set [4]: In vivo PK after s.c. dosing, normal rats. On the set-up: species or system Sprague-Dawley rat. The note with it: s.c. 30 nmol/kg, mean value. As for the experimental part:
(§3) Insulin-Fc conjugates were tested in vivo by subcutaneous (s.c.) administration to normal and streptozotocin (STZ) treated male Sprague-Dawley (SD) rats.
(§4) The rats were dosed s.c. in the neck region with a dose of 30 nmol/kg of the insulin-Fc conjugates. Blood samples for blood glucose and plasma insulin analysis were collected from the tongue vein up to 10 days post dosing. The insulin-Fc concentrations were measured by immuno-assay (LLOQ=1000 pM) and the resulting half-life values after s.c. dosing are shown in Table 4. The PK profiles for normal rats are shown in FIG. 3 and for streptozotocin treated rats in FIG. 6. Blood glucose (BG) was measured using Biosen S Line (EKF) and the BG and baseline corrected BG profiles for normal rats are shown in FIGS. 1 and 2 and for streptozotocin treated rats in FIGS. 4 and 5 respectively.

The nature of data set [5]: In vivo PK after s.c. dosing, streptozotocin treated rats. Details: species or system Sprague-Dawley rat. To be noted: s.c. 30 nmol/kg, mean value. As for the experimental part: as §3, §4
The test system of data set [6] is normal Sprague-Dawley rats. Kind of data set: In vivo PD, blood glucose lowering in normal rats. Details: species or system Sprague-Dawley rat. The note with it: s.c. 30 nmol/kg, baseline corrected BG up to 10 days, difference from vehicle, mean. The procedure:
as §3, §4

Data set [7] deals with streptozotocin treated Sprague-Dawley rats. Kind of data set: In vivo PD, blood glucose lowering in streptozotocin treated rats. Details: species or system Sprague-Dawley rat. The note with it: s.c. 30 nmol/kg, baseline corrected BG up to 10 days, difference from vehicle, mean. The procedure:
as §3, §4

The nature of data set [8]: Stability study: purity by anionic exchange chromatography. It is filed as physicochemical. The note with it: purity %(5° C.) − purity %(30° C.), 30 μM, pH 7.4. The procedure:
Samples for stability studies were prepared by weighing out 8-10 mg freeze-dried material. The freeze-dried material was solubilized to […] in a premade solution A (5 mM phophate (pH 7.4), 140 mM NaCl and 70 ppm polysorbate 20). Protein concentration was determined using absorbance at 280 nm using a Nanodrop 2000 (Thermo Fisher Scientific Inc.) and theoretical extinction coefficients. Dilution into solution A was done to reach a final concentration of 30 μM.
Anionic exchange chromatography was performed on an Ultra-Performance Liquid Chromatography system (Waters Acquity H-Class) equipped with a fluorescence detector (Waters Acquity FLR Detector). A Bio SAX column with dimensions 50×4.6 mm from Agilent, kept at 30° C., was used in gradient elution mode. Mobile phase A was 5/95 (v/v), acetonitrile/water with 25 mM BIS-TRIS propane, pH 7.3 and mobile phase B was 5/95 (v/v), acetonitrile/water with 25 mM BIS-TRIS propane and 350 mM NaCl, pH 7.3. Injection volume was 3 μL. The flow rate was kept at 0.5 mL/min with a linear gradient from 10 to 47% B in 3 min followed by a linear gradient from 47 to 55% B in 30 min. Peaks were detected with an emission wavelength of […] and data processing is performed with the EMPOWER 3 software from Waters. Samples were analysed for purity as percent API in relation to all other species.
Reported as Δ purity %=purity %(5° C.)−purity % (30° C.).
Stability of Fc-insulin analogues was evaluated by comparing purity from anion exchange chromatography and formation of high molecular weight products (HMWP) at 5° C. (control) versus 30° C. (heat induced stress). […] The amount of HMWP was decreased by 0.5-2% in the stressed sample versus the control, i.e. some aggregated material has disassociated during incubation at 30° C.

A further data set deals with T4, hFcRn ectodomain (Homo sapiens, UniProt P55899).
T4 construct: the hFcRn ectodomain diluted at 4000 nM with 2-fold serial dilutions was injected
T4 sequence (P55899 24-297 limits assumed): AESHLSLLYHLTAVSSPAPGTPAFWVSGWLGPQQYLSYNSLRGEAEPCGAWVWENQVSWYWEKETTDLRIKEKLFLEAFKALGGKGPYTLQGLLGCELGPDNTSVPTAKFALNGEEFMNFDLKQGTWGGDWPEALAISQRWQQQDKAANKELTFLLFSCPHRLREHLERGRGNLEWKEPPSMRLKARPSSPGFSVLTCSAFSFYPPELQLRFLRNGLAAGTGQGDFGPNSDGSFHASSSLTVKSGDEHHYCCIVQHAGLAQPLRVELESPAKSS
T4 sequence (P61769 21-119 partner): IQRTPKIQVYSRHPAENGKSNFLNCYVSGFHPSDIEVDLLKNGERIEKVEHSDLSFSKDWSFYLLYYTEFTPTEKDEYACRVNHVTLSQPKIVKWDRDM
Kind of data set: SPR analysis of the binding of hFcRn ECD. To be noted: pH 6.0, 25° C., steady-state fitting; read-out: Kn (μM), binding of hFcRn ECD. The procedure:
First, the three Insulin-Fc samples diluted at 10 ug/ml and the wild-type hIgG4 Fc (produced in HEK293 cells, i.e. glycosylated) diluted at 30 ug/ml in 10 mM sodium acetate (pH 4.5) (GE Healthcare, catalogue #BR100350) were immobilized on a CMD50L sensor chip (XanTec Bioanalytics GmbH) at spot 2 or 4 at 70-90 RU in each used flow cell via amine coupling with 1×HBS-EP+ (pH 7.4) (GE Healthcare, catalogue #BR-1006-69) used as the running buffer. The wild-type hIgG4 Fc was used as the control sample. In each used flow cell, spots 2, 3 and 4 were activated by 100 mM N-hydroxysuccinimide (NHS) and 400 mM N-ethyl-N′-dimethylaminopropyl carbodiimide hydrochloride (EDC) mixed at equal volume before the immobilization and blocked by 1 M ethanolamine hydrochloride-NaOH (pH 8.5) after the immobilization. NHS, EDC and ethanolamine were obtained from the Amine Coupling Kit, type 2 (GE Healthcare, catalogue #BR100633).
Next, the hFcRn ectodomain diluted at 4000 nM with 2-fold serial dilutions was injected through each used flow cell for 60 sec to allow for binding of the hFcRn ectodomain to the Insulin-Fc conjugates and wild-type hIgG4 Fc samples immobilized on the sensor chip, followed by dissociation for 180 sec. 1×PBS-EP+ (pH 6.0) was used as the dilution buffer for the hFcRn ectodomain and the running buffer in each binding cycle at the flow rate of 30 ul/min. After each binding cycle, the sensor chip was regenerated with a 60 sec injection of 1×PBS-EP+ (pH 7.4) at the flow rate of 30 ul/min. The 1×PBS-EP+ (pH 7.4) buffer was prepared by diluting 0.5 M EDTA (pH 8.0) (Invitrogen, catalogue #15575038) at 3 mM into 1×PBS-P+ (GE Healthcare, catalogue #28995084). The 1×PBS-EP+ (pH 6.0) buffer was prepared by adjusting the pH of the 1×PBS-EP+ buffer from 7.4 to 6.0 using ˜10 M HCl. The affinities (equilibrium dissociation constants, KD) were determined via steady-state fitting of the binding curves using the 1:1 binding model in Biacore 4000 Evaluation Software 1.0 (GE Healthcare).

T1 sequence (P06213 28-1370 isoform P06213-2 limits assumed): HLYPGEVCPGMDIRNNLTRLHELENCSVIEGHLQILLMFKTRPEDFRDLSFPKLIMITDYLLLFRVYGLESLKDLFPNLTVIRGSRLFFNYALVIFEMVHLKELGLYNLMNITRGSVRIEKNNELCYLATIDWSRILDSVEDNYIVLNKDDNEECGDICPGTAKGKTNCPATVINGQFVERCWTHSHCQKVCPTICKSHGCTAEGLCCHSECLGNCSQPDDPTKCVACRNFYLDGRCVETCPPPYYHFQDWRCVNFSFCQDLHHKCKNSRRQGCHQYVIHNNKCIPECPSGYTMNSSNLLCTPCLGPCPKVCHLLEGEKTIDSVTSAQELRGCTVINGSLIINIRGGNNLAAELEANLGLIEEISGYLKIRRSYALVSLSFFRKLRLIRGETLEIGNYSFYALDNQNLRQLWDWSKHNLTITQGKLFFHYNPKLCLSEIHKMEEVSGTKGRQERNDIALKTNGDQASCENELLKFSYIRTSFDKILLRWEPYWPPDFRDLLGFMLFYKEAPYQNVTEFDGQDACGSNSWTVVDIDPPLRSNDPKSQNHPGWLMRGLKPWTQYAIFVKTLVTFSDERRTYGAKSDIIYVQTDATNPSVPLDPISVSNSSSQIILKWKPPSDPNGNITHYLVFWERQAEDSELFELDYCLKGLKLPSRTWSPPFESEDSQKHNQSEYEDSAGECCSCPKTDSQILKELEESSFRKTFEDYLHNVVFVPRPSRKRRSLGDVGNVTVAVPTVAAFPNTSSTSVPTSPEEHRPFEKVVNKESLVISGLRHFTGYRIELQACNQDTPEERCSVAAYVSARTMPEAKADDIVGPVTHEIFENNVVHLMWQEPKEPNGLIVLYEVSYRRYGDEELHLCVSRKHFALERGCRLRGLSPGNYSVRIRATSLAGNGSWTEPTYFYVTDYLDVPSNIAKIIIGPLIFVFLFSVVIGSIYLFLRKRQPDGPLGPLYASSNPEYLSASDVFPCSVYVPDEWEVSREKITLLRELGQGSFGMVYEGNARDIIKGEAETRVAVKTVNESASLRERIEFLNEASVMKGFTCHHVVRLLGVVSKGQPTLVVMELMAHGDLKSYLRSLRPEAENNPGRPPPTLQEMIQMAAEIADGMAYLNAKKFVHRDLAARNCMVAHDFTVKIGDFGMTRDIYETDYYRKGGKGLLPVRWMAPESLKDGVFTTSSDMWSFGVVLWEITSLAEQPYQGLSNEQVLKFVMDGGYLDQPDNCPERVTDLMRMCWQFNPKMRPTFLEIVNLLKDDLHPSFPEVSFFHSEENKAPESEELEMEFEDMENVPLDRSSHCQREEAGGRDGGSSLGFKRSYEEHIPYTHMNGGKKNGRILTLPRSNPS
T1 sequence (P06213 763-1382 partner limits assumed): as the sequence (P06213 763-1382 partner limits assumed) above

For the substance “(A14E, A21G, A22(GQEP)11, A66G, A67Q, A68E, A69K^, A70P, B16E, B25H, B29R, desB30 human insulin)/(226A, 227G, 228P, 234A, 235K, 297E, 315Q, 384Q, des447 hIgG4-Fc(226-447))3,5-bis[(2-acetyl)amino]benzoyl Conjugate [Example 5.3]”, the “hIR-A mem Rel. aff. (%)” value in [1] turned out to be 0.66%. Further, the “hIR-B mem Rel. aff. (%)” value in [2] is 0.59%. Moreover, in data set [3], the “IGF1R mem Rel. aff. (%)” value was determined as 0.29%. Besides, the “Lipogenesis Rel. pot. (%)” value in the data set with primary rat adipocytes was 0.64%. Further, the “PK normal rat [T1/2, s.c. (h)]” value in data set [4] came to 48 h. Further, the “PK STZ rat [T1/2, s.c. (h)]” value in data set [5] came to 50 h. For the same substance, in [6], the “AOCBG normal rat” value was found to be 248 mM·h. Moreover, in data set [7], the “AOCBG STZ rat” value worked out at 2771 mM·h. The same substance returned a Δ purity in data set [8] of 4.3%. Also, the Kd at hFcRn ectodomain was 1.5 µM.

The record behind these values is patent US20210393745A1, “OLIGOMER EXTENDED INSULIN-FC CONJUGATES AND THEIR MEDICAL USE” (Novo Nordisk A/S, priority 2018, published 2021).
